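Results reflect a 48-hour exposure of cells in 96-well plates to compound at five concentrations. Abbreviation: GI50, concentration required for 50% inhibition of growth. Definition used: TGI = concentration required for complete inhibition of growth.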
Assays:
Experiment in all cases: NCI tumour cell line growth inhibition, 48 h
786-0 renal = tested on: 786-0 renal
A498 renal = tested on: A498 renal
A549 NSCLC = tested on: A549 NSCLC
ACHN renal = tested on: ACHN renal
CAKI-1 renal = tested on: CAKI-1 renal
CCRF-CEM leukemia = tested on: CCRF-CEM leukemia
COLO 205 colon = tested on: COLO 205 colon
DU-145 prostate = tested on: DU-145 prostate
EKVX NSCLC = tested on: EKVX NSCLC
HCC-2998 colon = tested on: HCC-2998 colon
HCT-116 colon = tested on: HCT-116 colon
HCT-15 colon = tested on: HCT-15 colon
HL-60(TB) leukemia = tested on: HL-60(TB) leukemia
HOP-62 NSCLC = tested on: HOP-62 NSCLC
HOP-92 NSCLC = tested on: HOP-92 NSCLC
HS 578T breast = tested on: HS 578T breast
HT29 colon = tested on: HT29 colon
IGROV1 ovarian = tested on: IGROV1 ovarian
K-562 leukemia = tested on: K-562 leukemia
KM12 colon = tested on: KM12 colon
LOX IMVI melanoma = tested on: LOX IMVI melanoma
M14 melanoma = tested on: M14 melanoma
MALME-3M melanoma = tested on: MALME-3M melanoma
MCF7 breast = tested on: MCF7 breast
MDA-MB-231 breast = tested on: MDA-MB-231 breast
MDA-MB-435 = tested on: MDA-MB-435
MOLT-4 leukemia = tested on: MOLT-4 leukemia
NCI-H226 lung = tested on: NCI-H226 lung
NCI-H23 lung = tested on: NCI-H23 lung
NCI-H460 lung = tested on: NCI-H460 lung
NCI-H522 lung = tested on: NCI-H522 lung
NCI/ADR-RES ovarian = tested on: NCI/ADR-RES ovarian
OVCAR-3 ovarian = tested on: OVCAR-3 ovarian
OVCAR-4 ovarian = tested on: OVCAR-4 ovarian
OVCAR-5 ovarian = tested on: OVCAR-5 ovarian
OVCAR-8 ovarian = tested on: OVCAR-8 ovarian
PC-3 prostate = tested on: PC-3 prostate
RPMI-8226 leukemia = tested on: RPMI-8226 leukemia
RXF 393 renal = tested on: RXF 393 renal
SF-268 CNS = tested on: SF-268 CNS
SF-295 CNS = tested on: SF-295 CNS
SF-539 CNS = tested on: SF-539 CNS
SK-MEL-2 melanoma = tested on: SK-MEL-2 melanoma
SK-MEL-28 melanoma = tested on: SK-MEL-28 melanoma
SK-MEL-5 melanoma = tested on: SK-MEL-5 melanoma
SK-OV-3 ovarian = tested on: SK-OV-3 ovarian
SN12C renal = tested on: SN12C renal
SNB-19 CNS = tested on: SNB-19 CNS
SNB-75 CNS = tested on: SNB-75 CNS
SR leukemia = tested on: SR leukemia
SW-620 colon = tested on: SW-620 colon
T-47D breast = tested on: T-47D breast
TK-10 renal = tested on: TK-10 renal
U251 CNS = tested on: U251 CNS
UACC-257 melanoma = tested on: UACC-257 melanoma
UACC-62 melanoma = tested on: UACC-62 melanoma
UO-31 renal = tested on: UO-31 renal
BT-549 breast = tested on: BT-549 breast

## COC1=CCC2=C(CCN(C(=O)C3CC3)C2Cc2ccc(OC)c(O)c2)C1 (configuration not stated)
786-0 renal
  TGI: > 100 µM
A498 renal
  TGI: > 100 µM
A549 NSCLC
  TGI: > 100 µM
ACHN renal
  TGI: > 100 µM
CAKI-1 renal
  TGI: > 100 µM
CCRF-CEM leukemia
  TGI: > 100 µM
COLO 205 colon
  TGI: > 100 µM
DU-145 prostate
  TGI: > 100 µM
EKVX NSCLC
  TGI: > 100 µM
HCC-2998 colon
  TGI: > 100 µM
HCT-116 colon
  TGI: > 100 µM
HCT-15 colon
  TGI: 59.6 µM
HL-60(TB) leukemia
  TGI: 91.7 µM
HOP-62 NSCLC
  TGI: > 100 µM
HOP-92 NSCLC
  TGI: 96.9 µM
HS 578T breast
  TGI: > 100 µM
HT29 colon
  TGI: > 100 µM
IGROV1 ovarian
  TGI: > 100 µM
K-562 leukemia
  TGI: > 100 µM
KM12 colon
  TGI: > 100 µM
LOX IMVI melanoma
  TGI: > 100 µM
M14 melanoma
  TGI: > 100 µM
MALME-3M melanoma
  TGI: > 100 µM
MCF7 breast
  TGI: > 100 µM
MDA-MB-231 breast
  TGI: > 100 µM
MDA-MB-435
  TGI: 68.8 µM
MOLT-4 leukemia
  TGI: > 100 µM
NCI-H226 lung
  TGI: > 100 µM
NCI-H23 lung
  TGI: 66.1 µM
NCI-H460 lung
  TGI: > 100 µM
NCI-H522 lung
  TGI: 82.4 µM
NCI/ADR-RES ovarian
  TGI: 55.4 µM
OVCAR-3 ovarian
  TGI: > 100 µM
OVCAR-4 ovarian
  TGI: > 100 µM
OVCAR-5 ovarian
  TGI: > 100 µM
OVCAR-8 ovarian
  TGI: > 100 µM
PC-3 prostate
  TGI: > 100 µM
RPMI-8226 leukemia
  TGI: > 100 µM
RXF 393 renal
  TGI: 59.5 µM
SF-268 CNS
  TGI: > 100 µM
SF-295 CNS
  TGI: > 100 µM
SF-539 CNS
  TGI: > 100 µM
SK-MEL-2 melanoma
  TGI: > 100 µM
SK-MEL-28 melanoma
  TGI: > 100 µM
SK-MEL-5 melanoma
  TGI: > 100 µM
SK-OV-3 ovarian
  TGI: > 100 µM
SN12C renal
  TGI: > 100 µM
SNB-19 CNS
  TGI: > 100 µM
SNB-75 CNS
  TGI: 67.4 µM
SR leukemia
  TGI: 82.6 µM
SW-620 colon
  TGI: > 100 µM
T-47D breast
  TGI: 70.9 µM
TK-10 renal
  TGI: > 100 µM
U251 CNS
  TGI: > 100 µM
UACC-257 melanoma
  TGI: > 100 µM
UACC-62 melanoma
  TGI: > 100 µM
UO-31 renal
  TGI: > 100 µM

## C=CC(=O)N1CC2(CC(n3nc(-c4ccc(Oc5ccccc5)cc4)c4c(N)ncnc43)C2)C1
BT-549 breast
  GI50: 1.4 µM
  TGI: > 100 µM
CAKI-1 renal
  GI50: 1.04 µM
  TGI: > 100 µM
COLO 205 colon
  GI50: 1.46 µM
  TGI: > 100 µM
HCC-2998 colon
  GI50: > 100 µM
  TGI: > 100 µM
K-562 leukemia
  GI50: 1.19 µM
  TGI: > 100 µM
M14 melanoma
  GI50: 2.23 µM
  TGI: > 100 µM
NCI-H23 lung
  GI50: > 100 µM
  TGI: > 100 µM
NCI-H460 lung
  GI50: > 100 µM
  TGI: > 100 µM
SF-268 CNS
  GI50: 1.43 µM
  TGI: > 100 µM
SF-295 CNS
  GI50: > 100 µM
  TGI: > 100 µM
SN12C renal
  GI50: 0.78 µM
  TGI: > 100 µM
SR leukemia
  GI50: 6.45 µM
  TGI: > 100 µM
SW-620 colon
  GI50: > 100 µM
  TGI: > 100 µM
UACC-257 melanoma
  GI50: 1.97 µM
  TGI: > 100 µM
UACC-62 melanoma
  GI50: 1.72 µM
  TGI: > 100 µM

Reference: PubChem BioAssay (NCI)
